For one assay, the system named is MCF-7. The assay is described as follows: Direct growth suppression, MTT method. The assay is classed as cell-based. The settings on record: Homo sapiens, MCF7, 24 hours, read-out: IC50 of VST. The source says: (§1) In this Example, HeLa cells and various other culture cells were used to measure the survival rate during the above-mentioned reporter analysis and VST addition. Specifically, in addition to HeLa cells (human cervical cancer cells), MCF-7 (human breast cancer cells), PC12NH (rat pheochromocytoma), MDA-MB-231 (human breast cancer cells), TIG-3 (human normal fibroblast cells), HeLa 786C cells (human cervical cancer cells), Saos-2 (telomerase and p53-deficient human cancer cells) and SUSM-1 (telomerase-deficient human cancer cells) were used.
(§2) The direct growth suppression activity of VST on these cells was measured using the MTT method. 100 μL cell suspension (5×10^4/mL) of each of the above-mentioned cells was dispensed into each well of a 96-well plate and cultured for 6 hours at 37° C. After culturing, VST solution diluted stepwise as in Example 4 was added thereto and cultured for another 24 hours. After culturing for 24 hours, 0.05 g/mL MTT solution (10 μL) was added to each well and incubation was performed at 37° C. for 4 hours. The medium was then removed, DMSO (100 μL) was added, and the absorbance at 530 nm was measured (FIG. 8).
A general note: Tetrazolium assays rely on reduction of a dye to a coloured formazan, in cell work by metabolically active cells.

The next assay relates to PC12NH. The experiment in a line: Direct growth suppression, MTT method. To be noted: Rattus norvegicus, 24 hours, read-out: IC50 of VST. The assay is classed as cell-based.
Excerpt: as §1, §2

As a reminder, the IC50 is the concentration at which inhibition is half-maximal. In the case of `CC/C1=C\C(CO)CC(C)C(OC2CC(O)C(OC3CC(OC)C(OC4CC(O)C(O)C(C)O4)C(C)O3)C(C)O2)C(C)CCCC2(C)C=C(C)C(C)CC23OC(=O)C(=C3O)C(=O)C2(CC)C1C(C)=CC1C(O)CC(=O)C(C)C12` (centres unmarked) [VST, versipelostatin], the IC50 in the assay with MCF-7 and in the assay with PC12NH was more than 100 µM each time.

The values above are taken from patent publication US7358233B2, “Tetronic acid derivative” (Toudai TLO, Ltd, priority 2001, dated 2008).
